{"source": "ChEMBL document CHEMBL1135388", "about": "“Design and synthesis of pyrrolidine-5,5-trans-lactams (5-oxohexahydropyrrolo[3,2-b]pyrroles) as novel mechanism-based inhibitors of human cytomegalovirus protease. 2. Potency and chirality” (J Med Chem, 2002)"}
{"biological_target": "Acetylcholinesterase (Homo sapiens, UniProt P22303)", "sequence (P22303 whole entry)": "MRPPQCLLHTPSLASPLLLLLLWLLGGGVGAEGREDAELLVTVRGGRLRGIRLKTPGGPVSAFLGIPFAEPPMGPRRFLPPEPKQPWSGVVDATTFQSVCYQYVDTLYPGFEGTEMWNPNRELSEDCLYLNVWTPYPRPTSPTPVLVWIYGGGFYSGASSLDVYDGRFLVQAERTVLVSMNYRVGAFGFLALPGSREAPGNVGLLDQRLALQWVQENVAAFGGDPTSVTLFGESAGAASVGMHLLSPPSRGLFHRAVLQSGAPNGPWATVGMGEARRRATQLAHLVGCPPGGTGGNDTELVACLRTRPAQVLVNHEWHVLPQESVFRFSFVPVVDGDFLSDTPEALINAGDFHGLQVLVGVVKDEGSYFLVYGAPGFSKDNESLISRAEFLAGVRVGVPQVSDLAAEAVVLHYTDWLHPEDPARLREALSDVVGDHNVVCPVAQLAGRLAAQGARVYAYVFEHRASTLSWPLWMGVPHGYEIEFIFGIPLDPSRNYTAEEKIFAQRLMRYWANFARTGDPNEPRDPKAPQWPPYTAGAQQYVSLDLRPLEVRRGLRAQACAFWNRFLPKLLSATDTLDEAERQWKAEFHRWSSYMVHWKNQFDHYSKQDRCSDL", "test": "Concentration required for 50% Acetylcholinesterase inhibition", "units": {"IC50": "µM"}}
{"smiles": "CC(=O)N1C(=O)[C@@H](C)[C@@H]2[C@@H]1CCN2C(=O)[C@@H]1CCCN1S(=O)(=O)c1cccc2c(N(C)C)cccc12", "IC50": "> 100"}
{"smiles": "C[C@@H]1C(=O)N(C(=O)C2CC2)[C@H]2CCN(C(=O)[C@@H]3CCCN3S(=O)(=O)c3cccc4c(N(C)C)cccc34)[C@H]12", "IC50": "> 100"}
{"biological_target": "Prothrombin (Homo sapiens, UniProt P00734)", "test": "Concentration required for 50% thrombin inhibition", "units": {"IC50": "µM"}}
{"smiles": "CC(=O)N1C(=O)[C@@H](C)[C@@H]2[C@@H]1CCN2C(=O)[C@@H]1CCCN1S(=O)(=O)c1cccc2c(N(C)C)cccc12", "IC50": "> 200"}
{"smiles": "C[C@@H]1C(=O)N(C(=O)C2CC2)[C@H]2CCN(C(=O)[C@@H]3CCCN3S(=O)(=O)c3cccc4c(N(C)C)cccc34)[C@H]12", "IC50": "> 200"}
{"biological_target": "T1, Capsid scaffolding protein (Human cytomegalovirus (strain AD169) (HHV-5) (Human herpesvirus 5), UniProt P16753)", "T1 sequence (P16753 whole entry)": "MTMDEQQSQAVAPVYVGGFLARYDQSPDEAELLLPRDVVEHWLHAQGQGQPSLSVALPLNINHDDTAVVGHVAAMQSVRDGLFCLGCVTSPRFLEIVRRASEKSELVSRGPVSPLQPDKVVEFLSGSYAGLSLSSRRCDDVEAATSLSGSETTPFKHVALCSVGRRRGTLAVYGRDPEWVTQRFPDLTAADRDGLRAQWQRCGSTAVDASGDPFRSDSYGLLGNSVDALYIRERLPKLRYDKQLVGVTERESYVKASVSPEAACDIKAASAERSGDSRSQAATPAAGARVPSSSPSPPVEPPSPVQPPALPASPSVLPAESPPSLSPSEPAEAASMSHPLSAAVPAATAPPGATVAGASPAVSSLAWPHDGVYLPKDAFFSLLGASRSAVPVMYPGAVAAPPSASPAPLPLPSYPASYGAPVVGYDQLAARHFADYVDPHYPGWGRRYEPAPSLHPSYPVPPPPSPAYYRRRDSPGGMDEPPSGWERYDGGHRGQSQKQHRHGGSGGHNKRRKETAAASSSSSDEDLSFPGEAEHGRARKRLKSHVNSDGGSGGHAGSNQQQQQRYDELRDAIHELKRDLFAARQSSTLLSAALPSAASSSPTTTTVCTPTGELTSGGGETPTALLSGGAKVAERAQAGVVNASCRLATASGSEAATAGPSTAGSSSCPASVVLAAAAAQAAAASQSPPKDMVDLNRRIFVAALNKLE", "test": "Inhibition of Human cytomegalo virus(HCMV) protease activity measured by HPLC assay", "design": "species or system Human herpesvirus 5 strain AD169", "units": {"IC50": "µM"}}
{"smiles": "C[C@@H]1C(=O)N(C(=O)C2CCC2)[C@H]2CCN(C(=O)OCc3ccccc3)C12", "note": "(some centres undefined)", "IC50": 32}
{"smiles": "CC(=O)OCC(=O)N1C(=O)[C@@H](C)C2[C@@H]1CCN2C(=O)OCc1ccccc1", "note": "(some centres undefined)", "IC50": 6}
{"smiles": "C[C@@H]1C(=O)N(C(=O)C(C)(C)C)[C@H]2CCN(C(=O)OCc3ccccc3)C12", "note": "(some centres undefined)", "IC50": "> 500"}
{"smiles": "CC(=O)N1C(=O)[C@@H](C)C2[C@@H]1CCN2C(=O)Cc1c(C)[nH]c2ccc(F)cc12", "note": "(some centres undefined)", "IC50": 6}
{"smiles": "C[C@@H]1C(=O)N(C(=O)CCO)[C@H]2CCN(C(=O)OCc3ccccc3)C12", "note": "(some centres undefined)", "IC50": 133}
{"smiles": "CC(=O)N1C(=O)[C@@H](C)C2[C@@H]1CCN2C(=O)C(=O)c1cccn1C", "note": "(some centres undefined)", "IC50": 5}
{"smiles": "CC(=O)OCC(=O)N1C(=O)C(C)C2C1CCN2C(=O)OCc1ccccc1", "note": "(centres undefined)", "IC50": 13}
{"smiles": "CC(C)C(=O)N1C(=O)[C@@H](C)C2[C@@H]1CCN2C(=O)OCc1ccccc1", "note": "(some centres undefined)", "IC50": 126}
{"biological_target": "not listed separately", "test": "Concentration required for 50% elastase inhibition", "units": {"IC50": "µM"}}
{"smiles": "CC(=O)N1C(=O)[C@@H](C)[C@@H]2[C@@H]1CCN2C(=O)[C@@H]1CCCN1S(=O)(=O)c1cccc2c(N(C)C)cccc12", "IC50": "> 10"}
{"smiles": "C[C@@H]1C(=O)N(C(=O)C2CC2)[C@H]2CCN(C(=O)[C@@H]3CCCN3S(=O)(=O)c3cccc4c(N(C)C)cccc34)[C@H]12", "IC50": "> 10"}
{"biological_target": "T1, Capsid scaffolding protein", "test": "Concentration required for inhibition of human cytomegalo virus (HCMV) protease activity.", "design": "species or system Human herpesvirus 5 strain AD169", "units": {"IC50": "µM"}}
{"smiles": "COc1ccc(C(=O)N2C(=O)[C@@H](C)C3[C@@H]2CCN3C(=O)OCc2ccccc2)cc1", "note": "(some centres undefined)", "IC50": "> 500"}
{"smiles": "C[C@@H]1C(=O)N(C=O)[C@H]2CCN(C(=O)OCc3ccccc3)C12", "note": "(some centres undefined)", "IC50": 398}
{"smiles": "C[C@H]1C(=O)N(C(=O)C2CC2)[C@@H]2CCN(C(=O)C3CCCCN3S(=O)(=O)c3cccc4c(N(C)C)cccc34)[C@H]21", "note": "(some centres undefined)", "IC50": 13}
{"smiles": "C[C@@H]1C(=O)N(C(=O)C2Cc3ccccc32)[C@H]2CCN(C(=O)OCc3ccccc3)C12", "note": "(some centres undefined)", "IC50": 11.5}
{"smiles": "C[C@@H]1C(=O)N(C(=O)C2CC2)[C@H]2CCN(C(=O)OCc3ccccc3)C12", "note": "(some centres undefined)", "IC50": 9}
{"smiles": "C[C@@H]1C(=O)N(C(=O)C2CC2)[C@H]2CCN(C(=O)[C@@H]3CCCN3S(=O)(=O)c3cccc(C(=O)N(C)C)c3)[C@H]12", "IC50": 1.4}
{"smiles": "CC(=O)N1C(=O)[C@@H](C)C2[C@@H]1CCN2CC(=O)Cc1ccccc1", "note": "(some centres undefined)", "IC50": 79}
{"smiles": "CC(=O)N1C(=O)[C@@H](C)[C@@H]2[C@@H]1CCN2C(=O)[C@@H]1CCCN1S(=O)(=O)c1cccc2c(N(C)C)cccc12", "IC50": 0.54}
{"smiles": "C[C@H]1C(=O)N(C(=O)C2CC2)[C@@H]2CCN(C(=O)CN(C)S(=O)(=O)c3cccc4c(N(C)C)cccc34)[C@H]21", "IC50": "> 100"}
{"smiles": "CC1CC1C(=O)N1C(=O)[C@@H](C)C2[C@@H]1CCN2C(=O)OCc1ccccc1", "note": "(some centres undefined)", "IC50": 10}
{"smiles": "C[C@@H]1C(=O)N(C(=O)C2C(C)(C)C2(C)C)[C@H]2CCN(C(=O)OCc3ccccc3)C12", "note": "(some centres undefined)", "IC50": "> 500"}
{"smiles": "CC(=O)N1C(=O)[C@@H](C)C2[C@@H]1CCN2C(=O)COc1ccccc1", "note": "(some centres undefined)", "IC50": 63}
{"smiles": "C[C@@H]1C(=O)N(C(=O)C2[C@@H](C)[C@H]2C)[C@H]2CCN(C(=O)OCc3ccccc3)C12", "note": "(some centres undefined)", "IC50": 72}
{"smiles": "CC(=O)N1C(=O)[C@H](C)[C@H]2[C@H]1CCN2C(=O)[C@@H]1CCCN1S(=O)(=O)c1ccc([N+](=O)[O-])cc1", "IC50": 11}
{"smiles": "C[C@@H]1C(=O)N(CC(O)COc2ccccc2)[C@H]2CCN(C(=O)OCc3ccccc3)C12", "note": "(some centres undefined)", "IC50": "> 500"}
{"smiles": "CC(C)Oc1cccc(S(=O)(=O)N2CCC[C@H]2C(=O)N2CC[C@H]3[C@H]2[C@H](C)C(=O)N3C(=O)C2CC2)c1", "IC50": 65}
{"smiles": "Cc1ccc(S(=O)(=O)N2CCCC2C(=O)N2CC[C@H]3C2[C@H](C)C(=O)N3C=O)cc1", "note": "(some centres undefined)", "IC50": 14}
{"smiles": "C[C@@H]1C(=O)N(C(=O)C2CC2)[C@H]2CCN(C(=O)[C@@H]3CCCN3S(=O)(=O)Cc3cccc(N(C)C)c3)[C@H]12", "IC50": 2.2}
{"smiles": "CC(=O)N1C(=O)[C@@H](C)[C@@H]2[C@@H]1CCN2C(=O)[C@@H]1CCCN1C(=O)c1ccccc1", "IC50": 50}
{"smiles": "C[C@@H]1C(=O)N(C(=O)C2[C@@H](C)[C@@H]2C)[C@H]2CCN(C(=O)OCc3ccccc3)C12", "note": "(some centres undefined)", "IC50": "> 100"}
{"smiles": "CC(=O)N1C(=O)[C@H](C)[C@H]2[C@H]1CCN2C(=O)[C@@H]1CCCN1S(=O)(=O)c1cccc2c(N(C)C)cccc12", "IC50": "> 500"}
{"smiles": "CC(NS(=O)(=O)c1cccc2c(N(C)C)cccc12)C(=O)N1CC[C@@H]2[C@@H]1[C@@H](C)C(=O)N2C(=O)C1CC1", "note": "(some centres undefined)", "IC50": 7}
{"smiles": "CC(=O)N1C(=O)[C@@H](C)C2[C@@H]1CCN2S(=O)(=O)CCc1ccccc1", "note": "(some centres undefined)", "IC50": 45}
{"smiles": "CC(=O)N1C(=O)[C@H](C)[C@H]2[C@H]1CCN2C(=O)[C@@H]1CCCN1C(=O)c1ccccc1", "IC50": "> 500"}
{"smiles": "CC(=O)N1C(=O)[C@H](C)[C@H]2[C@H]1CCN2C(=O)[C@@H]1CCCN1S(=O)(=O)c1ccc(C)cc1", "IC50": 159}
